The record followed here is patent US7365231B2, “Compound with antitumor activity and preparation method therefor” (National Taiwan University of Science & Technology, priority 2005, dated 2008).

Type in all cases: cell-based
Assay [1] has as its system TK-10. The experiment in a line: NCI panel growth inhibition, sulforhodamine B. The following applies: Homo sapiens; TK-10, Renal cancer; drug for last 48 h of 72 h. An excerpt:
(§1) Comparison of anticancer activities of the 1,3-substituted adamantane derivatives, 1,3-bis(4-aminophenyl)adamantane (1,3-DPANH2), 1,3-bis(4-(4-aminophenoxy)phenyl)adamantane (1,3-DPAONH2), 1,3-bis(4-(4-amino-3-hydroxy)phenyl)adamantane (1,3-DPA/OH/NH2) and 1,3-bis(4-(4-amino-2-trifluoromethylphenoxy)phenyl)adamantane (1,3-DPA/CF3/NH2) as shown in FIG. 1 were synthesized in the present invention. Those compounds were submitted to the National Cancer Institute for anticancer assay in culture against a standard panel of cell lines. […] To further confirm that the different substituents (CF3 and OH) on the phenyl ring of 1,3-DPAONH2 affect the growth inhibition of cancer cells. […] The transformations of 1,3-DPAONH2 to 1,3-DPA/OH/NH2 led to a remarked enhancement of anticancer activity toward all the tested cancer lines. The role of the OH group at the ortho position of the NH2 on growth inhibition is remarkable. In addition, one compound (1,3-DPA/OH/NH2) was confirmed to have an IC50 of <1 μM against one of the cells (BT-549 breast carcinoma). Comparison of anticancer activities of 1,3-substituted diaminophenyladamantane derivatives, the following order of potency against the tested cancer lines was observed: 1,3-DPA/OH/NH2>1,3-DPAONH2>1,3-DPANH2>1,3-DPA/CF3/NH2.

Assay [2] concerns KM12. Nature of the assay: NCI panel growth inhibition, sulforhodamine B. The following applies: Homo sapiens, KM12, KM12, Colon cancer; drug for last 48 h of 72 h.
Text: as §1

The subject of assay [3] is MDA-N. Nature of the assay: NCI panel growth inhibition, sulforhodamine B. The note with it: Homo sapiens, Breast cancer, drug for last 48 h of 72 h.
Text: as §1

In assay [4] the test system is NCI-H23. The experiment in a line: NCI panel growth inhibition, sulforhodamine B. The note with it: Homo sapiens; NCI-H23, NSCLC; drug for last 48 h of 72 h.
Text: as §1

In assay [5] the test system is SK-MEL-5. The experiment in a line: NCI panel growth inhibition, sulforhodamine B. The following applies: Homo sapiens; SK-MEL-5, Melanoma; drug for last 48 h of 72 h.
Text: as §1

Assay [6] deals with SNB-19. The experiment in a line: NCI panel growth inhibition, sulforhodamine B. The following applies: Homo sapiens; SNB-19, CNS cancer; drug for last 48 h of 72 h.
Text: as §1

Assay [7] has as its system IGROV1. Nature of the assay: NCI panel growth inhibition, sulforhodamine B. The following applies: Homo sapiens, IGROV-1; IGROV1, Ovarian cancer; drug for last 48 h of 72 h.
Text: as §1

Assay [8] has as its system NCI-H226. The experiment in a line: NCI panel growth inhibition, sulforhodamine B. The following applies: Homo sapiens; NCI-H226, NSCLC; drug for last 48 h of 72 h.
Text: as §1

The test system of assay [9] is SN12C. Nature of the assay: NCI panel growth inhibition, sulforhodamine B. The note with it: Homo sapiens, Renal cancer, drug for last 48 h of 72 h.
Text: as §1

Assay [10] has as its system UO-31. The experiment in a line: NCI panel growth inhibition, sulforhodamine B. The following applies: Homo sapiens; UO-31, Renal cancer; drug for last 48 h of 72 h.
Text: as §1

The test system of assay [11] is HCT-15. The experiment in a line: NCI panel growth inhibition, sulforhodamine B. The following applies: Homo sapiens; HCT-15, Colon cancer; drug for last 48 h of 72 h.
Text: as §1

The subject of assay [12] is RPMI-8226. Nature of the assay: NCI panel growth inhibition, sulforhodamine B. The following applies: Homo sapiens; RPMI-8226, Leukemia; drug for last 48 h of 72 h.
Text: as §1

The test system of assay [13] is OVCAR-8. The experiment in a line: NCI panel growth inhibition, sulforhodamine B. The following applies: Homo sapiens; OVCAR-8, Ovarian cancer; drug for last 48 h of 72 h.
Text: as §1

For assay [14], the system named is UACC-257. The experiment in a line: NCI panel growth inhibition, sulforhodamine B. The note with it: Homo sapiens; UACC-257, Melanoma; drug for last 48 h of 72 h.
Text: as §1

The test system of assay [15] is SK-MEL-2. The experiment in a line: NCI panel growth inhibition, sulforhodamine B. The note with it: Homo sapiens; SK-MEL-2, Melanoma; drug for last 48 h of 72 h.
Text: as §1

The subject of assay [16] is RXF-393. Nature of the assay: NCI panel growth inhibition, sulforhodamine B. The note with it: Homo sapiens; RXF-393, Renal cancer; drug for last 48 h of 72 h.
Text: as §1

For assay [17], the system named is T-47D. The experiment in a line: NCI panel growth inhibition, sulforhodamine B. The note with it: Homo sapiens, T47D, Breast cancer, drug for last 48 h of 72 h.
Text: as §1

Assay [18] concerns PC-3. The experiment in a line: NCI panel growth inhibition, sulforhodamine B. The note with it: Homo sapiens; PC-3, Prostate cancer; drug for last 48 h of 72 h.
Text: as §1

Assay [19] relates to HS 578T. Nature of the assay: NCI panel growth inhibition, sulforhodamine B. The following applies: Homo sapiens, Breast cancer, drug for last 48 h of 72 h.
Text: as §1

Assay [20] has as its system NCI-H522. The experiment in a line: NCI panel growth inhibition, sulforhodamine B. The following applies: Homo sapiens; NCI-H522, NSCLC; drug for last 48 h of 72 h.
Text: as §1

Assay [21] deals with MALME-3M. Nature of the assay: NCI panel growth inhibition, sulforhodamine B. The following applies: Homo sapiens, Melanoma, drug for last 48 h of 72 h.
Text: as §1

In assay [22] the test system is HT29. The experiment in a line: NCI panel growth inhibition, sulforhodamine B. The following applies: Homo sapiens, HT-29; HT29, Colon cancer; drug for last 48 h of 72 h.
Text: as §1

Assay [23] has as its system NCI-H322M. The experiment in a line: NCI panel growth inhibition, sulforhodamine B. The note with it: Homo sapiens, NSCLC, drug for last 48 h of 72 h.
Text: as §1

Assay [24] concerns NCI's human cancer cell lines. The experiment in a line: NCI panel growth inhibition, whole panel summary. The following applies: in vitro.
Text: as §1, with “1,3-DPA/OH/NH2>1,3-DPAONH2>1,3-DPANH2>1,3-DPA/CF3/NH2. […]” for “1,3-DPA/OH/NH2>1,3-DPAONH2>1,3-DPANH2>1,3-DPA/CF3/NH2.”

On to `Nc1ccc(C23CC4CC(C2)CC(c2ccc(N)cc2)(C4)C3)cc1` [1,3-DPANH2, 1,3-bis(4-aminophenyl)adamantane], for which the IC50 – broadly, the concentration needed to halve the response being measured – in assay [1] was greater than 100 µM; in assay [2], greater than 100 µM; in assay [3], 37.7 µM; in assay [4], 59.6 µM; in [5], 13.1 µM; in assay [6], 37.8 µM. Besides, the concentration for half-maximal inhibition (IC50) in assay [7] is greater than 100 µM; in [8] it was 11.5 µM; in [9] it was 25.1 µM; in assay [10] it was 4.87 µM; in assay [11], 14.5 µM; in assay [12], 10.7 µM. Further, the figures for the IC50 in assay [13], in [14] and in [15] were 85.1 µM, 75.5 µM and 35.9 µM, respectively.
Take `Nc1ccc(Oc2ccc(C34CC5CC(C3)CC(c3ccc(Oc6ccc(N)cc6C(F)(F)F)cc3)(C5)C4)cc2)c(C(F)(F)F)c1` [1,3-DPA/CF3/NH2, 1,3-bis-(4-(4-amino-2-trifluoromethylphenoxy)phenyl)adamantane]: the IC50 is 16.1 µM in assay [1]; 11.1 µM in [16]; 21 µM in assay [2]; 36.7 µM in assay [3]; 17.7 µM in assay [4]; 22 µM in assay [5]. Also, the IC50 in assay [6] worked out at 22.5 µM; in [17], 15.1 µM; in assay [18], 14.8 µM; in assay [7], 19.5 µM; in assay [8] it was 19.4 µM; in [9] it was 31.1 µM. Further, the IC50 worked out at 17.1 µM in assay [19]; 14.4 µM in [20]; 39.1 µM in assay [10]; 22.2 µM in assay [21]; 17.2 µM in assay [22]; 31.8 µM in assay [11]. Also, the IC50 amounted to 20.1 µM in assay [23], 16 µM in assay [13], 18.7 µM in [14] and 14.1 µM in assay [15].
In the case of `Nc1ccc(Oc2ccc(C34CC5CC(C3)CC(c3ccc(Oc6ccc(N)c(O)c6)cc3)(C5)C4)cc2)cc1O` [1,3-DPA/OH/NH2, 1,3-bis-(4-(4-amino-3-hydroxyphenoxy)phenyl)adamantane], the “growth inhibitory activity against the tested cancer cell lines (in words)” value in assay [24] is given as “strong growth inhibitory activities”. Further, the IC50 stood at 5.57 µM in assay [1]; 1.61 µM in [16]; 1.72 µM in assay [2]; 1.58 µM in [3]; 1.86 µM in [4]; 1.88 µM in [5]. Besides, the IC50 in assay [6] is 1.31 µM; in [17] it was 1.66 µM; in assay [18] it was 1.94 µM; in assay [7] it was 1.38 µM; in assay [8], 5.05 µM; in [9], 1.74 µM. Also, the IC50 worked out at 1.63 µM in [19]; 1.4 µM in assay [20]; 1.95 µM in assay [10]; 1.93 µM in [21]; 1.76 µM in [11]; 1.26 µM in assay [23]. Also, the IC50 in assay [12] was 2.54 µM; in [13] it was 2.03 µM; in assay [14] it was 2.23 µM; in assay [15], 2.45 µM.
Consider `Nc1ccc(Oc2ccc(C3(c4ccc(Oc5ccc(N)cc5)cc4)C4CC5CC(C4)CC3C5)cc2)cc1` [2,2-DPAONH2, 2,2-bis(4-(4-aminophenoxy)phenyl)adamantane], for which the IC50 in assay [1] came to 14.3 µM; in assay [2], 3.55 µM; in [3], 2.74 µM; in assay [4] it was 5.15 µM; in assay [5] it was 8.38 µM; in assay [6], 10.1 µM. The IC50 in assay [18] came out at 6.75 µM; in assay [7] it was 5.88 µM; in [8], 21.4 µM; in assay [9], 3.65 µM; in [19], 4.91 µM; in [20], 4.28 µM. The IC50 in [10] was 3.02 µM; in [21], 13.6 µM; in [22], 2.96 µM; in assay [11], 4.94 µM; in [23] it was 0.184 µM; in [12], 3.01 µM. Also, the IC50 in assay [13] was determined as 5.82 µM; in [14], 5.76 µM; in [15] it was 16.8 µM.
For `Nc1ccc(C2(c3ccc(N)cc3)C3CC4CC(C3)CC2C4)cc1` [2,2-DPANH2, 2,2-bis(4-aminophenyl)adamantane], the IC50 stood at 18 µM in assay [1]; 2.74 µM in assay [16]; 18.6 µM in [3]; 19.9 µM in [4]; 14.6 µM in [6]; 14.4 µM in assay [17]. Besides, the IC50 in assay [18] was 14.9 µM; in assay [7], 9.6 µM; in assay [8], 12.4 µM; in [9], 18.6 µM; in [20], 15.6 µM; in assay [10], 18.3 µM. Also, the IC50 in [22] was determined as 0.1 µM; in [11] it was 21.9 µM; in [13], 7.73 µM; in assay [14], 19.2 µM; in [15] it was 18.5 µM.
For `Nc1ccc(Oc2ccc(C34CC5CC(C3)CC(c3ccc(Oc6ccc(N)cc6)cc3)(C5)C4)cc2)cc1` [1,3-DPAONH2, 1,3-bis(4-(4-aminophenoxy)phenyl)adamantane], the IC50 stood at 24.9 µM in [1]; 7.78 µM in assay [16]; 4.07 µM in [2]; 4.33 µM in [3]; 6.92 µM in assay [4]; 13.8 µM in assay [5]. For the same compound, the IC50 in assay [6] was 8.66 µM; in assay [17] it was 5.67 µM; in [18] it was 11.5 µM; in assay [7], 2.64 µM; in assay [8], 23.2 µM; in [9], 5.76 µM. The IC50 in [19] worked out at 11.7 µM; in [20], 13.3 µM; in assay [10] it was 13.6 µM; in assay [21], 14.6 µM; in assay [22] it was 7.12 µM; in assay [11], 4.99 µM. In addition, the IC50 in assay [23] was 8.84 µM; in assay [12], 4.14 µM; in [13], 4.82 µM; in assay [14] it was 12.5 µM; in [15], 15.7 µM.
